“Also recorded” adds a separate entry of the source. Read-outs that look alike come from different tables or passages of the source.
Key:
[1] = 5-day cytotoxicity assay with Cell Titer Glo readout, MT4; assay type: cell-based; details: human
From the text: (§1) Supplemental Table S2. CC50 values for INSTIs in 5- day cytotoxicity as says with Cell Titer
(§2) Expi293F GALPC3 GALHEP HUH7 MRC5 MT4 PBMC PBMC
(§3) Kidney Prostate Hepatoma Hepatoma Lung T-cell line Primary Primary
(§4) (embryonic) cancer cell cell line cell line fibroblast cells

[2] = 5-day cytotoxicity assay with Cell Titer Glo readout, GALPC3; assay type: cell-based; details: human
From the text: as §1, §2, §3, §4

[3] = 5-day cytotoxicity assay with Cell Titer Glo readout, GALHEPG2; assay type: cell-based; details: human
From the text: as §1, §2, §3, §4

[4] = test system: murine mCherry-core RAG1 / mCherry-RAG2 V(D)J recombination in Expi293F cells; assay: Extrachromosomal cell-based V(D)J recombination assay (GFP reporter, flow cytometry); details: for Effect on percentage of GFP-positive cells / RAG recombination: across concentrations tested, 48 h post-transfection
From the text: To further evaluate the effect of HIV-1 integrase inhibitors on RAG activity in a cellular context, we optimized a novel extrachromosomal cell-based V(D)J recombination assay, enabling assessment of multiple compounds in a dose–response manner by flow cytometry ([33]). The schematic of FL murine RAG1 and RAG2 proteins, including the active site residues (DDE motif) in RAG1 and catalytically essential core regions of each protein, are shown in Fig. 5A. The cell-based assay used vectors that encode for the core RAG1 protein (instead of the FL version) and FL murine RAG2 expressed as C-terminal fusions to mCherry, termed mCherry-core RAG1 and mCherry-RAG2. The core regions of each RAG protein are sufficient to catalyze V(D)J recombination, whereas the non-core regions function to regulate the recombination reaction ([13]). […] The consensus RSS used in this assay contains a conserved heptamer and nonamer separated by 12 or 23 non-conserved bp (12RSS and 23RSS) (Fig. 5B). A general schematic of the design for the plasmid substrate with the 12RSS and 23RSS orientations before and after V(D)J recombination is presented in Fig. 5C. More specifically, the plasmid substrate pMAXgfp-INV was designed with a 12RSS and a 23RSS flanking each side of the Pontellina plumata green fluorescent protein gene (termed maxGFP), where the gene is in an inverted orientation relative to the CMV promoter (Fig. 5D). The RSSs are positioned in a co-linear orientation, such that successful V(D)J recombination activity will result in inversion of the maxGFP gene to place it in a transcriptionally active orientation with resulting expression of GFP. Detection of GFP-expressing cells using microscopy and flow cytometry was used as a direct readout of V(D)J recombination activity.
For the recombination assay, the pMAXgfp-INV plasmid substrate and RAG1/RAG2 expression vectors (mCherry-core RAG1 and mCherry-RAG2) were transiently transfected into Expi293 cells in the absence or presence of integrase inhibitors and were assessed via microscopy and flow cytometry. The fluorescence signal from the mCherry-tag is used to assess transfection efficiency of RAG1/RAG2 vectors (Fig. 6A). We observed that transfection of the pMAXgfp-INV substrate into Expi293 cells with RAG1/RAG2 expression vectors yielded robust GFP expression 48 h post-transfection in the cells treated with vehicle control (0.1% dimethyl sulfoxide [DMSO]) (Fig. 6A). […] NU7026 inhibits double-strand break repair, which is a necessary step after DNA cleavage by RAG enzymes, and thus serves as an indirect inhibitor of RAG activity ([35]).
To test the effect of HIV-1 integrase inhibitors on V(D)J recombination activity, we optimized an extrachromosomal cell-based V(D)J recombination assay ([33]). Briefly, Expi293 cells were plated at 1 × 10^6 cells/mL in six-well plates in Gibco Expi293 expression media the day before transfection. The next day, the Expi293 cells were co-transfected with three separate vectors, pMAXgfp-INV plasmid substrate, mCherry-core RAG1, and mCherry-RAG2 expression vectors with a 4:1 transfection reagent:DNA ratio using ExpiFectamine 293 transfection reagent (Gibco). Vehicle or candidate inhibitors were added to cell samples 2 h after transfection, with six different concentrations of each inhibitor added to separate wells. Fivefold dilutions for each inhibitor starting from 10 µM were tested.
Experiments were performed with six separate inhibitors in at least three independent experiments. Two negative control conditions for recombination activity were performed in parallel and include (i) transfections in the presence of NU7026 at 30 and 50 µM (Abcam) and (ii) using a modified pMAXgfp-INV substrate containing two 12RSSs (instead of one 12RSS and one 23RSS) that is inefficiently recombined by the RAG proteins. Vehicle control (0.1% DMSO) served as the positive control for GFP expression. The fluorescence signal from the mCherry tag was used to assess transfection efficiency. […]

[5] = test system: PBMC primary cells; assay: 5-day cytotoxicity assay with Cell Titer Glo readout, PBMC; assay type: cell-based
From the text: as §1, §2, §3, §4

[6] = as above; assay type: cell-based
From the text: as §1, §2, §3, §4

[7] = test system: Expi293F cells; assay: Cell viability (CellTiterGlo) in the cellular RAG assay; assay type: cell-based, human; details: 48 hours after transfection, up to 10 µM (p8 up to 50 µM)
Procedure: After 48-h incubation at 37°C in a humidified 8% CO2 incubator, 100 µL of cell suspension was transferred to 96-well black assay plates (Corning). Each well of the assay plates then received 100 µL CellTiterGlo reagent and the resulting luminescence signal was read using the PHERAstar FSX plate reader (BMG Labtech, Germany).
Supplemental Figure S4. Cytotoxicity analysis of INSTIs in the cellular RAG assay using […]
Concentration (μM) Concentration (μM) Concentration (μM)
Expi293F cells were co-t ransfected with pMAXgfp- INV plasmid substrate, mCherry- core RAG1 , mCherry RAG2, with INSTIs added 2 hours after transfection. Six different concentrations of each […]
added to separate wells. % live cells normalized to 0.1% DMSO data are presented for INSTIs tested in cell viability (Cell- Titer Glo) assay 48 hours after transfection. BIC (n=5), CAB (n=3), concentrations tested. An ordinary one-way ANOVA with Dunnett's multiple comparisons test unmarked datapoints = not significant. […]
was used to compare % GFP levels to the DMSO control, *P ≤ 0.05, **P ≤ 0.01, ***P ≤ 0.001, (also on this page, place not known: live normalized 0.001 % live cells normalized DMSO 0.001 10 % live cells normalized DMSO 0.001 10 % live cells normalized to DMSO 0.001 10 % live cells normalized to DMSO E xpi293F cells co-transfected pMAXgfp-INV mCherry-core RAG1, 5-fold 10 to % live cells normalized to DMSO (n=3) one -way to % to DMSO)

[8] = 5-day cytotoxicity assay with Cell Titer Glo readout, HUH7; assay type: cell-based; details: human
From the text: as §1, §2, §3, §4

[9] = 5-day cytotoxicity assay with Cell Titer Glo readout, MRC5; assay type: cell-based; details: human
From the text: as §1, §2, §3, §4

SMILES | CC50 at 5 day [1] [µM] | CC50 at 5 day [2] [µM] | CC50 at 5 day [3] [µM] | Effect on percentage of GFP-positive cells / RAG recombination [4] | CC50 ([5]; 5 day) [µM] | CC50 at 5 day ([6]; CC50) [µM] | Cellular toxicity, % live cells normalized to 0.1% DMSO [7] | CC50 at 5 day [8] [µM] | CC50 at 5 day [9] [µM] | CC50 at 5 day ([1]; MT4, 5-day, Cell Titer Glo, read-out: CC50) [µM] | CC50 at 5 day ([2]; GALPC3, 5-day, Cell Titer Glo, read-out: CC50) [µM] | CC50 at 5 day ([3]; GALHEPG2, 5-day, Cell Titer Glo, read-out: CC50) [µM] | CC50 ([5]; PBMC Lot2, 5-day, Cell Titer Glo, read-out: CC50) [µM] | CC50 at 5 day ([6]; PBMC Lot1, 5-day, Cell Titer Glo, read-out: CC50) [µM] | CC50 at 5 day ([8]; HUH7, 5-day, Cell Titer Glo, read-out: CC50) [µM] | CC50 at 5 day ([9]; MRC5, 5-day, Cell Titer Glo, read-out: CC50) [µM] | IC50 ([4]; Mus musculus, Expi293F, compound added 2 h after transfection, read 48 h post-transfection, serum-free media, read-out: IC50 in cellular V(D)J recombination assay (% GFP-positive cells)) [µM]
O=C(NCc1c(F)cc(F)cc1F)c1cn2c(c(O)c1=O)C(=O)N1[C@H]3CC[C@H](C3)O[C@@H]1C2 [BIC, bictegravir] | 2.59 | > 44.4 | 17.4 | did not observe a reduction in percentage of GFP-positive cells; also recorded: do not show inhibitory activity | 24.2 | 28.5 | minimal effects on cellular toxicity | 38 | > 44.4 | – | – | – | – | – | – | – | –
C[C@H]1CO[C@@H]2Cn3cc(C(=O)NCc4ccc(F)cc4F)c(=O)c(O)c3C(=O)N12 [CAB, cabotegravir] | 5.25 | > 44.4 | 37.9 | did not observe a reduction in percentage of GFP-positive cells; also recorded: do not show inhibitory activity | 29.5 | 30 | minimal effects on cellular toxicity | 21.5 | 28.1 | – | – | – | – | – | – | – | –
C[C@@H]1CCO[C@H]2Cn3cc(C(=O)NCc4ccc(F)cc4F)c(=O)c(O)c3C(=O)N12 [DTG, dolutegravir] | 7.53 | > 44.4 | > 44.4 | did not observe a reduction in percentage of GFP-positive cells; also recorded: do not show inhibitory activity | 17.9 | 28.4 | minimal effects on cellular toxicity | 28.7 | 38.2 | – | – | – | – | – | – | – | –
COc1cc2c(cc1Cc1cccc(Cl)c1F)c(=O)c(C(=O)O)cn2[C@H](CO)C(C)C [EVG, elvitegravir] | 3.75 | 20.8 | 9.02 | do not show inhibitory activity | 14.1 | 14.6 | minimal effects on cellular toxicity | 20.4 | 14.3 | – | – | – | – | – | – | – | –
Cc1nnc(C(=O)NC(C)(C)c2nc(C(=O)NCc3ccc(F)cc3)c(O)c(=O)n2C)o1 [RAL, raltegravir] | – | – | – | did not observe a reduction in percentage of GFP-positive cells; also recorded: do not show inhibitory activity | – | – | minimal effects on cellular toxicity | – | – | > 50 | > 44.4 | > 44.4 | > 44.3 | > 44.3 | > 44.4 | > 44.4 | –
O=C(/C=C(\O)c1nnn[nH]1)c1c[nH]c2ccc(Cl)cc12 [p8, 5-CITEP] | > 50 | > 44.4 | > 44.4 | – | > 44.3 | > 44.3 | minimal effects on cellular toxicity | > 44.4 | > 44.4 | – | – | – | – | – | – | – | > 50

Reference: article PMC11705955, “Lack of activity of HIV-1 integrase strand-transfer inhibitors on recombinase activating gene (RAG) activity at clinically relevant concentrations” (Microbiology Spectrum, 2024)
